Experimental data reported in patent EP1452605A1, “Method for determining antiviral activity” (Universiteit Utrecht Holding B.V., priority 2003, dated 2004).

Assays:
[1] = tested on: HXB2; test: Drug susceptibility assay (cell-killing MTT assay) in MT-2 cells; conditions: Human immunodeficiency virus 1, HXB2, MT2, 120 h
Protocol: (§2) The cells were maintained at 37°C, 5% CO2. One day prior to the experiments, the cells were passaged 1:1 in a concentration of 1 × 10^6 cells/ml.
(§3) The genes that contain the drug resistance mutations are excised from the clinical isolates and cloned into the genetic background of HXB2. Thus all tested HIV-1 strains have the same genetic background. […] This strain contains an insertion of two a.a. between codons 68 and 69 of RT as well as an a.a. change at codon 67.
(§4) After 5 days of incubation a cellular viability assay was performed as described above. In this case, the amount of formazan reflects the number of cells protected by the drug against killing by the virus and is used as a read out for drug susceptibility.

[2] = Cellular viability assay (MTT) of MDM; format: cell-based; conditions: human, 7 days, read-out: TC50
[3] = concentrations of APHS up to 100 mg/kg; cited from earlier work
[4] = tested on: HIV-1HXB2; test: HIV-1 infection of PBMC, p24-core antigen ELISA; format: cell-based; conditions: Human immunodeficiency virus 1, 168 h; PBMC infected with HIV-1HXB2, p24 antigen after 7 days
Protocol: (§1) To correct for the input virus, an extra control consisting of medium containing the same amount of input virus as added to the cells was included in the experiment. The amount of p24 in this control was subsequently subtracted from the p24 values of the samples in order to obtain the exact amount of p24 produced by the cells. p24-core antigen quantification by ELISA After 2 or 7 days incubation, samples of the supernatants were collected, inactivated by addition of Empigen (Calbiochem, La Jolla, CA, USA) and by heat inactivation at 56°C for 30 min. p24-core antigen concentration was determined by an enzyme linked immunoabsorbent assay (ELISA) (AMPAK™, DAKO, Cambridgeshire, UK) as described previously ^18,19. The optical density values were converted into p24 concentration (ng/ml) with the use of a calibration curve made by serial dilutions of recombinant p24 protein (NIBSC, UK) that was submitted to the same treatment as the samples.

[5] = tested on: HIV-1AT; test: HIV-1 infection of PBMC, p24-core antigen ELISA; format: cell-based; conditions: Human immunodeficiency virus 1, 168 h; PBMC infected with HIV-1AT, p24 antigen after 7 days
Protocol: as §1

[6] = tested on: Mouse L cells; test: Cytotoxicity in mouse L cells by microscopic observation
Protocol: After 24h, the cytopatic effect (CPE) of the virus and the cytotoxicity of the compounds were scored by microscopic observation.

[7] = tested on: 4602; test: Drug susceptibility assay (cell-killing MTT assay) in MT-2 cells; conditions: Human immunodeficiency virus 1, MT2, 120 h
Protocol: as §2, §3, §4

[8] = tested on: HIV-1Ba-L; test: Entry assay: gag RNA in PBMC by real-time Taqman PCR; format: cell-based; conditions: gag RNA in PBMC 2h after infection, 10 or 30 µM APHS
Protocol: PBMC infection with HIV-1Ba-L or HIV-1HXB2 for real-time Taqman PCR The ability of HIV-1Ba-L to enter the cells in the presence of APHS was tested using DS as positive control (entry assay). The amount of HIV-1HXB2 reverse transcription products in the presence of APHS was also tested, using AZT as positive control (reverse transcription assay). Before infection, PHA-stimulated PBMC from the PBMC batch were pre-incubated with different concentrations of APHS, DS or AZT for 24 h. […]
Real-time Taqman PCR is based on cleavage of a probe, hybridized to the target sequence by 5'-3' nuclease activity of Taq DNA polymerase during amplification, as described previously ^24. […] Once separated from the quencher, the reporter dye emits its characteristic fluorescence, which can then be measured. The amount of fluorescence measured is proportional to the amount of PCR product.
HIV-1 gag cDNA and HIV-1 (-) strong stop and gag DNA were amplified and quantified by real-time Taqman PCR as described elsewhere ^25. […] To quantify the amount of gag RNA in the samples, a cDNA standard curve was prepared from five-fold dilutions of extracted RNA from an HXB2 viral batch, of which the RNA amount was previously determined.

[9] = tested on: chronically HIV-1-infected U1 cell line; test: Infection model with the chronically HIV-1-infected monocytic cell line U1, p24 ELISA; format: cell-based; conditions: PMA (100 ng/ml) stimulated, APHS 3, 10 and 30 µM, 2 days
Protocol: U1 cells (AIDS Reagents, Rockville, […]) were incubated with 100 ng/ml phorbol myristate acetate (PMA; Sigma) or with medium (negative control) for 30 min. Afterwards the cells were washed and seeded in a concentration of 1 × 10^6 cells/ml in RPMI 1640 medium containing 10% FCS and 10 µg/ml gentamycin either with increasing concentrations of APHS or with 30 mM N-acetyl-L-cysteine (NAC; Sigma), which served as a positive control. After 2 days of incubation, samples of the supernatant were collected, inactivated by addition of Empigen and by 30 min incubation at 56°C. The concentration of p24 was determined by ELISA (AMPAK™) as described above.

Question: What does the source list for `CCCCC#CCSc1ccccc1OC(C)=O` [APHS, o-(acetoxyphenyl)hept-2-ynyl sulfide]?
Answer: IC50 [1]: 10 µM; CC50 at 168 h [2]: 235 µM; toxicity in the rat air pouch model [3]: no toxicity; IC50 [4]: 11 µM; IC50 [5]: 7 µM; cytotoxicity by microscopic observation [6]: not cytotoxic; IC50 [7]: 5 µM; viral entry [8]: no inhibition of viral entry; HIV-1 production (p24) by U1 cells [9]: not capable of inhibiting HIV-1 production
